Test results reported in US5985273A, “Biological control of insects” (priority 1994, dated 1999).
Converted amounts (≈) assume the structure as drawn. Starred links: 1 amine or outer side, 2 acyl side, 3 side chain; linkers in the order of their positions; H or OH if unused. Non-standard residues stand in square brackets, D forms with d. Residues, ends and D or L forms follow the SMILES beside them. *: point of attachment. Sta = CC(C)C[C@H](N)[C@@H](O)CC(=O)O; Isovaleryl = CC(C)CC(=O)*; Nle = CCCC[C@H](N)C(=O)O; CO = O=C([*:1])[*:2]

Columns and labels:
[1] = tested on: Bovicola ovis (Hartley strain); details: cited from earlier work
Lucilia cuprina larvae = experiment: Growth and survival of first instar sheep blowfly larvae on culture medium with inhibitor; assay type: in vivo; details: for Effect on larval growth, summary in words: Example 1, Table 1.2
[2] = tested on: Colorado potato beetle larvae; details: cited from earlier work
Ctenocephalides felis = experiment: Development of cat flea eggs in dried blood diets; assay type: in vivo; details: Day 16
Protocol: Blood was collected from the jugular vein of a five year old merino sheep that had not been treated with an ectoparasitic agent for 18 months. The blood was collected into a 100 ml plastic bottle containing 0.8 ml of heparin and was maintained at 4° C. Inhibitors were pre-weighed into sterile 5 ml plastic vials and 4.5 ml of blood added. The samples were mixed, placed at -70° C. for 24 hours, then freeze-dried. The freeze-dried samples were sieved through a stainless steel 63 micron sieve, and placed into sterile 5 ml plastic vials (0.15 g/per tube). Four flea eggs were placed into each vial, and a sheet of tissue paper fastened by an elastic band was fitted to the top of each vial. The vials were incubated at 25° C. and 70-80% R H for 6 days. Vermiculite was then added to each vial to provide a supporting medium for the fleas to pupate and the tubes incubated at 25° C. and 70-80% R H, for a further 10 days. Ten control vials and three vials of each treatment were tested.
At the conclusion of the incubation period the vials were placed at -20° C. for 24 hours to kill the fleas. The number of eggs hatched and the life-cycle state was recorded.

[3] = tested on: Heliothis punctigens larvae; experiment: Growth and survival of cotton budworm larvae fed an artificial diet; assay type: in vivo; details: for % Alive / Average Laval Weight: 10 days; for % Alive: control 70.0; for Average Laval Weight: control 165.4
Protocol: 1. The Haricot beans were cooked in a microwave for 40 minutes. 2. Agar was added to the hot water and stirred on a hot plate until almost boiling. 3. The haricot beans, agar mix, yeast and wheat germ was blended in an electric mixer for 3 minutes. 4. When the temperature has dropped to 60°C., the acids were added and mixed with the media. […] Inhibitor solutions or an equal volume of water were placed into sterilized glass tubes at designated concentrations. The artificial media was added to each tube (1.5 ml) using a sterile 10 ml syringe. First instar Heliothis punctigens larvae (1 larvae per tube) were added to the glass tubes and the tubes were capped. The tubes were incubated for 10 days at 25° C. The larvae were killed by placing the glass tubes at -70° C. for 24 hours, and then individually weighed. Percentage inhibition was calculated by comparison to control larvae.

O. surinamensis larvae = experiment: Weight reduction of Oryzaephylus surinamensis larvae in treated flour; assay type: in vivo
Protocol: Insects were cultured in cleaned, ground and sieved wholemeal flour made from organic wheat. Inhibitors from bottles of pre-weighed material were dry-mixed with the flour and residual inhibitor rinsed from bottles with a small volume of water. Rinse water was added to the flour and the mixture re-ground. The impregnated flour was transferred to a 20 mL vial and mixed thoroughly by shaking and inverting.
Adults of T. castaneum were allowed to oviposit on flour, eggs were sifted from the flour and transferred one by one with a single hair to microwell tubes containing a small amount of flour. Each level of treatment was performed in triplicated using 32 wells/replicate. Assays were performed in triplicated. Cultures were incubated at 30° C. and 55% R H.
The bioassay for this insect was outlined for T. castaneum, except incubations were conducted at 32.5° C. and 70% R H. After 8 days the insects were sieved from the flour and weighed.

Teleogryllus commodus = experiment: Mortality of black field cricket nymphs on treated cabbage leaf disks; assay type: in vivo; details: after 7 days
Protocol: (i) Stock solutions of inhibitors and control solutions were prepared as aqueous solutions or suspensions as outlined in Table 6.1.
(ii) Mortality was assessed by commencing the study with 1st instar nymphs.
(iii) Cabbage leaf disks (5×8 mm diameter disks/treatment) were smeared with 100 μl of inhibitor or control stock solutions and allowed to dry. Disks were placed singly in 40 mm petri dishes, together with a moist cotton wool pas as water supply and a piece of fluted plastic for shelter.
(iv) Ten nymphs were placed on each disc and the dishes incubated at 25° C.
(v) Mortality was assessed daily and any dead individuals removed.

[4] = first instar larvae, tested at 1, 2, 5, 10 mM
[5] = Lucilia cuprina, first instar larvae, 2 mM
[6] = Heliothis, 240 h, read-out: % Growth Inhibition
[7] = 192 h, 2.5 mM, 8 days, relative to untreated larvae, read-out: Percentage Growth Inhibition
[8] = 192 h, 5 mM, 8 days, relative to untreated larvae, read-out: Percentage Growth Inhibition
[9] = 192 h, 10 mM, 8 days, relative to untreated larvae, read-out: Percentage Growth Inhibition

Molecule: CCOP(=S)(OCC)Oc1cc(C)nc(C(C)C)n1 [Diatinon]
- LC50 ([1]; Hartley strain lice): 5.31 µg/mL (≈ 17.4 µM)
- LC95 ([1]; Hartley strain lice): 19.7 µg/mL (≈ 64.7 µM)
- Resistance Factor ([1]; Hartley strain, (Singapore)): 1.4

Molecule: CC(C)C[C@H](N)[C@](O)(Cc1c[nH]cn1)C(=O)O [Leuhistin, (2R,3S)-3-amino-2-hydroxy-2-(lII-imidazole-4-methyl)-5-methylhexanoic acid]
- Effect on larval growth, summary in words (Lucilia cuprina larvae): effective growth inhibitors
- Growth Inhibition (Lucilia cuprina larvae; first instar larvae, 5 mM): 65%

Molecule: CC[C@H](C)[C@H](N)C(=O)N1CCC[C@H]1C(=O)N[C@H](C(=O)O)[C@@H](C)CC [Diprotin, H-Ile-Pro-Ile-OH]
- Effect on larval growth, summary in words (Lucilia cuprina larvae): ineffective
- Growth Inhibition (Lucilia cuprina larvae; [4]): No inhibition detected

Molecule: CC(C)CC(=O)N[C@H](C(=O)N[C@H](C(=O)N[C@@H](CC(C)C)[C@@H](O)CC(=O)N[C@@H](C)C(=O)N[C@@H](CC(C)C)[C@@H](O)CC(=O)O)C(C)C)C(C)C [Pepstatin] (Isovaleryl-VV[Sta]A[Sta]-OH)
- Effect on larval growth, summary in words (Lucilia cuprina larvae): ineffectiveness
- Growth Inhibition (Lucilia cuprina larvae; first instar larvae, tested at 1, 2, 10 mM): No inhibition detected
- Growth retardation ([2]; fed on potato leaves): only a small response

Molecule: CC(=O)N[C@@H](CC(C)C)C(=O)N[C@@H](CC(C)C)C(=O)N[C@H](C=O)CCCNC(=N)N [Leupeptin, Ac-Leu-Leu-Arginyl.1/2H2 SO4 H2 O]
- Effect on larval growth, summary in words (Lucilia cuprina larvae): intermediate inhibition
- inhibition at 2000 µM (Lucilia cuprina larvae; [5]): 71%
- inhibition at 10000 µM (Lucilia cuprina larvae; Lucilia cuprina, first instar larvae, 10 mM): 80%
- Percentage of Fleas Progressing Through to Pupation (Ctenocephalides felis; 1.70 mg in 4.5 ml of blood): 0%
- Percentage of Fleas Progressing Through to Pupation (Ctenocephalides felis; 3.40 mg in 4.5 ml of blood): 0%
- % Alive ([3]; 2.5 mM): 16.6%
- Average Laval Weight ([3]; 2.5 mM): 16.6 mg
- % Alive ([3]; 5.0 mM): 33.3%
- Average Laval Weight ([3]; 5.0 mM): 17.0 mg
- inhibition at 2500 µM [3, 6]: 90%
- inhibition at 5000 µM [3, 6]: 89.7%

Molecule: CC(C)C[C@@H](N)[C@H](O)C(=O)N[C@H](C(=O)N[C@H](C(=O)N[C@@H](CC(=O)O)C(=O)O)C(C)C)C(C)C [Amastatin, ((2S,3R)-3-amino-2-hydroxy-5-methyl-hexanoyl)-Val-Val-Asp-OH]
- Effect on larval growth, summary in words (Lucilia cuprina larvae): effective growth inhibitors
- inhibition at 2000 µM (Lucilia cuprina larvae; [5]): 60%

Molecule: tosyl-L-phenylalanine chloromethyl ketone [TPCK]
- Growth Inhibition (Lucilia cuprina larvae; [4]): No inhibition detected

Molecule: CC(C)C[C@H](NC(=O)[C@H]1O[C@@H]1C(=O)O)C(=O)NCCCCN=C(N)N (relative stereo) [E64, L-trans-epoxy-succinyl-leucylamido-(4-guanidino-butane)]
- Effect on larval growth, summary in words (Lucilia cuprina larvae): ineffective
- Growth Inhibition (Lucilia cuprina larvae; first instar larvae, tested at 1, 2, 5 mM): No inhibition detected
- Plateau in mortality ([2]; 1000 μg/ml application level): 74-85%
- Threshold level for larval growth reduction ([2]; fed on potato leaves): 50 µg/mL

Molecule: tosyl-L-lysine chloromethyl ketone [TLCK]
- Effect on larval growth, summary in words (Lucilia cuprina larvae): killing the larvae
- Larval survival (Lucilia cuprina larvae; first instar larvae, 5 mM): All killed
- Larval survival (Lucilia cuprina larvae; first instar larvae, 10 mM): All killed

Molecule: CCCC[C@@H](C=O)NC(=O)[C@H](CC(C)C)NC(=O)[C@H](CC(C)C)NC(C)=O [Calpain inhibitor I, N-Acetyl-Leu-Ley-norleucinal] (Ac-Leu-Leu-[Nle]-aldehyde)
- Growth Inhibition (Lucilia cuprina larvae; first instar larvae, 2 mM): 71%

Molecule: CC(C)C[C@H](NC(=O)[C@@H](O)[C@H](N)Cc1ccccc1)C(=O)O [Bestatin]
- inhibition at 1250 µM (O. surinamensis larvae; 192 h, 1.25 mM, 8 days, relative to untreated larvae, read-out: Percentage Growth Inhibition): -5%
- inhibition at 2500 µM (O. surinamensis larvae; [7]): 2%
- inhibition at 5000 µM (O. surinamensis larvae; [8]): -4%
- Growth inhibition, summary in words (O. surinamensis larvae; text summary of Table 9.1): ineffective
- Effect on larval growth, summary in words (Lucilia cuprina larvae): effective growth inhibitors
- inhibition at 5000 µM (Lucilia cuprina larvae; Lucilia cuprina, first instar larvae, 5 mM): 63%

Molecule: O=BOB(O)OB(O)OB=O [Borax]
- Mortality (Teleogryllus commodus; 5-20 mM): 93%
- Mortality (class) (Teleogryllus commodus; 5-20 mM): High (high 41-100%)
- inhibition at 5000 µM (O. surinamensis larvae; [8]): -5%
- inhibition at 10000 µM (O. surinamensis larvae; [9]): 39%
- inhibition at 20000 µM (O. surinamensis larvae; 192 h, 20 mM, 8 days, relative to untreated larvae, read-out: Percentage Growth Inhibition): 68%

Molecule: Casein
- Percentage Growth Inhibition (O. surinamensis larvae; 10 mg/ml, 8 days): -5%
- Percentage Growth Inhibition (O. surinamensis larvae; 20 mg/ml, 8 days): 10%
- Percentage Growth Inhibition (O. surinamensis larvae; 40 mg/ml, 8 days): -2%

Molecule: CC(C)[C@H](NC(=O)[C@H](CCCNC(=N)N)NC(=O)N[C@@H](Cc1ccccc1)C(=O)O)C(=O)N[C@H](C=O)CCCNC(=N)N [Antipain] ({Phe-CO}-Arg-Val-Arg-aldehyde)
- Mortality (class) (Teleogryllus commodus; 2.5-10 mM): None (none/low, 10-20% mortality)
- inhibition at 2500 µM (O. surinamensis larvae; [7]): -10%
- inhibition at 5000 µM (O. surinamensis larvae; [8]): -2%
- inhibition at 10000 µM (O. surinamensis larvae; [9]): -2%
- inhibition at 2500 µM (Lucilia cuprina larvae; Lucilia cuprina, first instar larvae, 2.5 mM, unit inferred): 45.5%
- inhibition at 5000 µM (Lucilia cuprina larvae; Lucilia cuprina, first instar larvae, 5 mM, unit inferred): 63.2%

Molecule: Cl.NCCc1ccc(S(=O)(=O)F)cc1 [PEFABLOC, 4-(2-aminoethyl)-benzenesulfonylfluoride hydrochloride]
- Mortality (class) (Teleogryllus commodus; 2.5-10 mM): Medium (medium 21-40%)
- Percentage Growth Inhibition (O. surinamensis larvae; 2.5 mM, 8 days, relative to untreated larvae): 49%
- Percentage Growth Inhibition (O. surinamensis larvae; 5 mM, 8 days, relative to untreated larvae): 61%
- Percentage Growth Inhibition (O. surinamensis larvae; 10 mM, 8 days, relative to untreated larvae): 79%
- Growth Inhibition (Lucilia cuprina larvae; first instar larvae, 10 mM): 72%
- Growth Inhibition (Lucilia cuprina larvae; first instar larvae, 50 mM): 92%
- Percentage of Fleas Progressing Through to Pupation (Ctenocephalides felis; 1.10 mg in 4.5 ml of blood): 0%
- Percentage of Fleas Progressing Through to Pupation (Ctenocephalides felis; 2.20 mg in 4.5 ml of blood): 0%

Molecule: CC(C)CC(N)CS [L-leucinethiol, 2-amino-4-methyl-1-pentanethiol]
- Effect on larval growth, summary in words (Lucilia cuprina larvae): effective growth inhibitors
- inhibition at 1000 µM (Lucilia cuprina larvae; Lucilia cuprina, Table 2.2, 1.00 mM): 21.4%
- inhibition at 2000 µM (Lucilia cuprina larvae; Lucilia cuprina, Table 2.2, 2.00 mM): 73.1%
- inhibition at 2000 µM (Lucilia cuprina larvae; [5]): 47%
- Average Larval Weight (Lucilia cuprina larvae; Table 2.2, 1.00 mM, control 10.26): 8.06 10^-4 g
- Average Larval Weight (Lucilia cuprina larvae; Table 2.2, 2.00 mM, control 10.26): 2.76 10^-4 g
- % Growth Incubation (Lucilia cuprina larvae; Table 2.3, 1.0 mM): 67.2%
- Average Larval Weight (Lucilia cuprina larvae; Table 2.3, 1.0 mM, control 9.08): 2.98 10^-4 g
- % Growth Incubation (Lucilia cuprina larvae; Table 2.3, 2.0 mM): 86.6%
- Average Larval Weight (Lucilia cuprina larvae; Table 2.3, 2.0 mM, control 9.08): 1.22 10^-4 g
- Larval survival (Lucilia cuprina larvae; first instar larvae, 5 mM): All killed

Molecule: CC1(C)C(C=C(Cl)Cl)C1C(=O)OC(C#N)c1cccc(Oc2ccccc2)c1 (stereo not drawn) [Cypermethrin]
- LC95 ([1]; Hartley strain lice): 475 µg/mL (≈ 1140 µM)
